Source: patent US20120028244A1, “Anti-Viral Azide Containing Compounds” (LIFE TECHNOLOGIES CORPORATION, priority 2010, published 2012)

Columns and labels:
[1] = test system: Nuclear-GFP BacMam 2.0 virus (baculovirus); test: Infectivity of PTM analog-labeled Nuclear-GFP BacMam virus in U2-OS cells; type: cell-based; conditions: BacMam virus labeled in Sf9 insect cells with 50 uM analog; U2-OS cells incubated overnight with labeled virus; FIG. 5
Excerpt: Inhibition of insect cell baculovirus infectivity with azido fatty acid analogs: The BacMam system uses a modified insect cell virus (baculovirus) as a vehicle to efficiently deliver and express genes in mammalian cells. A Nuclear-GFP BacMam 2.0 expression system (Invitrogen, C10602) was used as a model to determine if PTM analog labeling of the virus would affect mammalian cell infectivity. Viruses were labeled with various PTM analogs and used to infect mammalian cells. Infectivity was determined by the expression of nuclear-GFP, as viral entry into the cell is required for expression of GFP protein. […]
Characterization of BacMam Virus Production: To verify, quantitate, and normalize the amount of enriched viruses obtained from insect cell supernatants, samples of each virus were lysed in SDS sample preparation buffer (SPB), sonicated with a probe tip sonicator, and heated at 90C to completely dissolve the viral proteins. Viral protein concentrations of the lysates were then determined. […]
Mammalian Cell Infection Protocol: To determine if the PTM analog-labeled viruses retain the ability to infect mammalian cells, 50,000 U2-OS cells (human osteosarcoma cell line) were plated onto a 6 well-chamber glass bottom plate. […] The following day cells were imaged on AMG EVOS fluorescence microscope at 10× or 20× magnification using both white light and GFP filters (FIG. 5). […]

HIV = test: Luciferase reporter assay of infectivity of azide-labeled HIV on TZM/BI reporter cells; type: cell-based, human immunodeficiency virus; conditions: HIVNL4-3 produced in CEMx174 cells spiked with the compound; labeled virus incubated 12 hours on TZM/BI reporter cells; single cycle replication system; FIGS. 3 and 4
Procedure: CEMx174 cells were transfected with HIVNL4-3 in a T-150 flask and the virus production was monitored by reverse transcriptase activity until peak virus production occurred (usually 7 to 9 days post transfection). Prior to transfection, the CEMx174 cells were spiked with the following azide-modified biomolecules: 15-azidopentadecanoic acid (50-100 μM), 12-azidododecanoic acid (50-100 μM), tetraacetylated N-azidoacetylgalactosamine (20-40 μM), and tetraacetylated N-azidoacetyl-D-mannosamine (20-40 μM).
Labeled virus was also obtained from the transfected cells. More specifically, virus-containing supernatants were collected and virus was purified through 20% sucrose as previously described (Graham, D. R. et al., Proteomics 2008, 8:4919-30). The purified virus was then mixed with the CLICK-IT® detection reagent, tetramethylrhodamine (TAMRA) alkyne and the CLICK-IT® Protein Reaction Buffer Kit (Invitrogen, Carlsbad, Calif.). Virus samples were run on a one-dimensional gel to reveal azide-labeled viral proteins (FIG. 2). […]
To examine the effect of the azide-modified biomolecules on the innate biology of the virus, the azide-labeled virus from the transfected cells was isolated and tested in cell infection studies. […] Viral infectivity was determined by measuring cellular luciferase activities with two different luciferase reagents.

| Structure (SMILES) | nuclear-GFP expression in U2-OS cells (viral entry) [1] | impact on the infectivity of the virus (cellular luciferase activity) (HIV) |
| --- | --- | --- |
| [N-]=[N+]=NCCCCCCCCCCCCCCC(=O)O [15-azidopentadecanoic acid] | no nuclear-GFP expression |  |
| [N-]=[N+]=NCCCCCCCCCCCC(=O)O [12-azidododecanoic acid] | no nuclear-GFP expression | profound impact on the infectivity of the virus |
